Source: patent US8802694B2, “3,6-diazabicyclo[3.1.1]heptanes as neuronal nicotinic acetycholine receptor ligands” (Targacept, Inc., priority 2009, dated 2014)
Read-outs that look alike come from different tables or passages of the source.

Tests used:
α6β3β4α5 = biological target: T1, α6β3β4α5 (Homo sapiens, UniProt P30926+Q15825); assay: Competition binding to α6β3β4α5 receptors in membranes of SH-EP1/α6β3β4α5 cells ([3H]-epibatidine); settings: membrane competition binding
T1 construct: host or cells: SH-EP1

Rat α4β2 = biological target: T2, Rat α4β2 (Rattus norvegicus, UniProt P09483+P12390); assay: Competition binding to rat α4β2 receptors in rat cortical membranes
T2 construct: Rat cortices were obtained from Analytical Biological Services; tissue Analytical Biological Services, Incorporated (ABS, Wilmington, Del.); host or cells: rat cortex (female Sprague-Dawley)
Method: Preparation of membranes from rat tissues. Rat cortices were obtained from Analytical Biological Services, Incorporated (ABS, Wilmington, Del.). Tissues were dissected from female Sprague-Dawley rats, frozen and shipped on dry ice. Tissues were stored at −20° C. until needed for membrane preparation. […] The resulting homogenate was centrifuged at 40,000 g for 20 minutes at 4° C. and the resulting pellet was resuspended in 20 volumes of ice-cold water. After 60-minute incubation at 4° C., a new pellet was collected by centrifugation at 40,000 g for 20 minutes at 4° C. The final pellet was resuspended in preparative buffer and stored at −20° C. On the day of the assay, tissue was thawed, centrifuged at 40,000 g for 20 minutes and then resuspended in PBS (Dulbecco's Phosphate Buffered Saline, Life Technologies, pH 7.4) to a final concentration of 2-3 mg protein/mL. Protein concentrations were determined using the Pierce BCA Protein Assay kit (Pierce Biotechnology, Rockford, Ill.), with bovine serum albumin as the standard.
Competition binding to receptors in membrane preparations. […] In brief, membranes were reconstituted from frozen stocks (approximately 0.2 mg protein) and incubated for 2 h on ice in […] assay buffer (PBS) in the presence of competitor compound (0.001 nM to […]) and radioligand. [^3H]-nicotine (L-(−)-[N-methyl-3H]-nicotine, 69.5 Ci/mmol, Perkin-Elmer Life Sciences) was used for human α4β2 binding studies. [^3H]-epibatidine (52 Ci/mmol, Perkin-Elmer Life Sciences) was used for binding studies at the other receptor subtypes. […] Filters were washed 3 times and the radioactivity retained was determined by liquid scintillation counting.
Binding data analysis. Binding data were expressed as percent total control binding. Replicates for each point were averaged and plotted against the log of drug concentration.

Human α4β2 = biological target: T3, Human α4β2 (Homo sapiens, UniProt P17787+P43681); assay: Competition binding to human α4β2 receptors in membranes of SH-EP1/human α4β2 cells ([3H]-nicotine)
T3 construct: host or cells: SH-EP1

[1] = Rat α4β2 Ki, rat cortex membranes
[2] = Human α4β2 Ki, membrane competition binding
[3] = membrane competition binding, read-out: Human α4β2 Ki
[4] = rat cortex membranes, read-out: Rat α4β2 Ki

Compound | Ki (α6β3β4α5; read-out: α6β3β4α5 Ki) [nM] | Ki (Rat α4β2; [1]) [nM] | Ki (Human α4β2; [2]) [nM] | Ki (α6β3β4α5; α6β3β4α5 Ki) [nM] | Ki (Human α4β2; [3]) [nM] | Ki (Rat α4β2; [4]) [nM] | Ki (Rat α4β2; read-out: Rat α4β2 Ki, rat cortex membranes) [nM] | Ki (Human α4β2; read-out: Human α4β2 Ki, membrane competition binding) [nM]
O=C(c1cnco1)N1CC2CC(C1)N2 | 17000 | 0.18 | 28 | – | – | – | – | –
Cc1ncoc1C(=O)N1CC2CC(C1)N2 | 11000 | 38 | – | – | – | – | – | –
O=C(C1CC1(F)F)N1CC2CC(C1)N2 (centres unmarked) | – | 8.8 | 6.1 | 510 | – | – | – | –
O=C(CC1CCCC1)N1C2CNCC1C2 | 360 | 100 | – | – | 220 | – | – | –
O=C(CC1CCOC1)N1C2CNCC1C2 (centres unmarked) | 1600 | – | – | – | 330 | 130 | – | –
O=C([C@H]1CCCO1)N1C2CNCC1C2 | 1100 | – | – | – | 390 | – | – | –
O=C(CC1CC1)N1C2CNCC1C2 | 310 | 27 | 43 | – | – | – | – | –
CC1(C)C(C(=O)N2CC3CC(C2)N3)C1(C)C | 480 | – | – | – | 140 | 710 | – | –
CC1CC1C(=O)N1CC2CC(C1)N2 (centres unmarked) | – | 1.8 | 5 | 120 | – | – | – | –
O=C(CSc1ccc(Cl)c(Cl)c1)N1CC2CC(C1)N2 | – | 16 | 2.3 | 100 | – | – | – | –
O=C(CSc1ccc(O)cc1)N1CC2CC(C1)N2 | 120 | 8.6 | 11 | – | – | – | – | –
O=C(NCc1ccccc1)N1CC2CC(C1)N2 | 400 | – | – | – | 270 | 200 | – | –
O=C(NCc1ccc(Cl)cc1)N1CC2CC(C1)N2 | 210 | 4 | – | – | 110 | – | – | –
O=C(NCc1ccc(Cl)cc1Cl)N1CC2CC(C1)N2 | – | 24 | 48 | 38 | – | – | – | –
O=C(NCc1ccc(Cl)c(Cl)c1)N1CC2CC(C1)N2 | 120 | 71 | 90 | – | – | – | – | –
CCCC(=O)N1CC2CC(C1)N2 | – | 4.1 | 12 | 290 | – | – | – | –
O=C(CCC(F)(F)F)N1CC2CC(C1)N2 | 980 | 63 | 74 | – | – | – | – | –
C/C=C/CCC(=O)N1CC2CC(C1)N2 | 540 | 25 | 37 | – | – | – | – | –
O=C(CC1CCC1)N1CC2CC(C1)N2 | 440 | 34 | 49 | – | – | – | – | –
CC1(C)CC1C(=O)N1CC2CC(C1)N2 (centres unmarked) | – | 6.7 | 5.3 | 120 | – | – | – | –
CCC1(CC)CC1C(=O)N1CC2CC(C1)N2 (centres unmarked) | 470 | 69 | 71 | – | – | – | – | –
C[C@@H]1C(C(=O)N2CC3CC(C2)N3)[C@@H]1C (some centres unmarked) | 170 | 30 | 44 | – | – | – | – | –
O=C([C@@H]1C[C@H]1c1ccccc1)N1CC2CC(C1)N2 | – | 4.4 | 4.7 | 64 | – | – | – | –

Compound | Ki (α6β3β4α5; read-out: α6β3β4α5 Ki) [nM] | Ki (Rat α4β2; [1]) [nM] | Ki (Human α4β2; [2]) [nM] | Ki (α6β3β4α5; α6β3β4α5 Ki) [nM] | Ki (Human α4β2; [3]) [nM] | Ki (Rat α4β2; [4]) [nM] | Ki (Rat α4β2; read-out: Rat α4β2 Ki, rat cortex membranes) [nM] | Ki (Human α4β2; read-out: Human α4β2 Ki, membrane competition binding) [nM]
O=C(C1CC12CCC2)N1CC2CC(C1)N2 (centres unmarked) | – | 1.2 | 2.6 | 50 | – | – | – | –
O=C(C1CC12CCCC2)N1CC2CC(C1)N2 (centres unmarked) | – | 31 | 26 | 96 | – | – | – | –
O=C(C1C2CCCCC21)N1CC2CC(C1)N2 (centres unmarked) | 280 | 30 | 78 | – | – | – | – | –
CCC[C@H]1C[C@H]1C(=O)N1CC2CC(C1)N2 | 220 | – | 44 | – | – | 130 | – | –
CC1CC(C(=O)N2CC3CC(C2)N3)C1 (centres unmarked) | 380 | 22 | 23 | – | – | – | – | –
O=C(C1CC(F)(F)C1)N1CC2CC(C1)N2 | 370 | 19 | 16 | – | – | – | – | –
O=C([C@@H]1C[C@@H]2C=C[C@H]1C2)N1CC2CC(C1)N2 | 1300 | – | – | – | 160 | 210 | – | –
CCCC(=O)N1C2CNCC1C2 | 230 | 5.1 | 9.9 | – | – | – | – | –
O=C(CCC(F)(F)F)N1C2CNCC1C2 | 1500 | 72 | – | – | 180 | – | – | –
C/C=C/CCC(=O)N1C2CNCC1C2 | 400 | 15 | 53 | – | – | – | – | –
O=C(CC1CCC1)N1C2CNCC1C2 | 360 | 30 | 53 | – | – | – | – | –
CC1(C)CC1C(=O)N1C2CNCC1C2 (centres unmarked) | 800 | 45 | 75 | – | – | – | – | –
C[C@@H]1C(C(=O)N2C3CNCC2C3)[C@@H]1C (some centres unmarked) | 2400 | – | – | – | 610 | – | – | –
O=C([C@@H]1C[C@H]1c1ccccc1)N1C2CNCC1C2 | 350 | 51 | 30 | – | – | – | – | –
O=C(C1CC12CCC2)N1C2CNCC1C2 (centres unmarked) | 340 | 32 | 38 | – | – | – | – | –
O=C(C1CC12CCCC2)N1C2CNCC1C2 (centres unmarked) | 610 | – | – | – | 280 | – | – | –
O=C(C1C2CCCCC21)N1C2CNCC1C2 (centres unmarked) | 6400 | – | – | – | 310 | – | – | –
CCC[C@H]1C[C@H]1C(=O)N1C2CNCC1C2 | 1100 | – | – | – | 570 | – | – | –
CC1CC(C(=O)N2C3CNCC2C3)C1 (centres unmarked) | 770 | 58 | 49 | – | – | – | – | –
O=C(C1CC(F)(F)C1)N1C2CNCC1C2 | 510 | 16 | 54 | – | – | – | – | –
O=C(C1CC2C=CC1C2)N1C2CNCC1C2 (centres unmarked) | 900 | – | – | – | 200 | 380 | – | –
O=C(C1C2C3CCC(C3)C12)N1C2CNCC1C2 (centres unmarked) | 100000 | – | – | – | 1900 | – | – | –
O=C([C@@H]1C[C@H]2C=C[C@H]1C2)N1C2CNCC1C2 | 1300 | – | – | – | 300 | – | – | –

Compound | Ki (α6β3β4α5; read-out: α6β3β4α5 Ki) [nM] | Ki (Rat α4β2; [1]) [nM] | Ki (Human α4β2; [2]) [nM] | Ki (α6β3β4α5; α6β3β4α5 Ki) [nM] | Ki (Human α4β2; [3]) [nM] | Ki (Rat α4β2; [4]) [nM] | Ki (Rat α4β2; read-out: Rat α4β2 Ki, rat cortex membranes) [nM] | Ki (Human α4β2; read-out: Human α4β2 Ki, membrane competition binding) [nM]
C[C@H]1C[C@@H]1C(=O)N1C2CNCC1C2 | 31000 | – | – | – | 210 | – | – | –
C[C@@H]1C[C@@H]1C(=O)N1C2CNCC1C2 | 30000 | – | – | – | 820 | – | – | –
C[C@@H]1C[C@H]1C(=O)N1C2CNCC1C2 | 1700 | 50 | 9.2 | – | – | – | – | –
C[C@H]1C[C@H]1C(=O)N1C2CNCC1C2 | 1800 | – | 9.6 | – | – | 180 | – | –
O=C([C@@H]1C[C@@H]1F)N1CC2CC(C1)N2 | – | 0.86 | 1.8 | 280 | – | – | – | –
O=C([C@@H]1C[C@H]1F)N1CC2CC(C1)N2 | – | 0.54 | – | 91 | 1 | – | – | –
C[C@H]1C[C@H]1C(=O)N1CC2CC(C1)N2 | – | 0.39 | 1.8 | 58 | – | – | – | –
C[C@@H]1C[C@H]1C(=O)N1CC2CC(C1)N2 | – | 0.08 | – | 95 | 1 | – | – | –
[2H]C1([2H])C([2H])([2H])C1([2H])C(=O)N1CC2CC(C1)N2 | – | 0.24 | 0.49 | 120 | – | – | – | –
O=C(CC(F)(F)F)N1CC2CC(C1)N2 [3-(2,2,2-trifluoroethyl)carbonyl-3,6-diazabicyclo[3.1.1]heptane] | 1700 | 25 | 11 | – | – | – | – | –
O=C(c1ccc(Br)o1)N1CC2CC(C1)N2 [3-(2-bromofuran-5-yl)carbonyl-3,6-diazabicyclo[3.1.1]heptane] | 1800 | 83 | 25 | – | – | – | – | –
O=C(c1cc(Br)co1)N1CC2CC(C1)N2 [3-(3-bromofuran-5-yl)carbonyl-3,6-diazabicyclo[3.1.1]heptane] | 2700 | 80 | 35 | – | – | – | – | –
O=C(c1occc1Cl)N1CC2CC(C1)N2 [3-(3-chlorofuran-2-yl)carbonyl-3,6-diazabicyclo[3.1.1]heptane] | 2400 | – | – | – | – | – | 56 | 7.9
O=C(C1CC1)N1CC2CC(C1)N2 [3-cyclopropylcarbonyl-3,6-diazabicyclo[3.1.1]heptane] | – | 2.3 | – | 140 | 3 | – | – | –
CC(C)C(=O)N1CC2CC(C1)N2 [3-isopropylcarbonyl-3,6-diazabicyclo[3.1.1]heptane] | – | 23 | 220 | 830 | – | – | – | –
O=C([C@H]1C[C@H]1F)N1CC2CC(C1)N2 [drawing 110] | – | 1.1 | 5.2 | 530 | – | – | – | –
O=C([C@H]1C[C@@H]1F)N1CC2CC(C1)N2 [drawing 111] | – | 0.81 | 4.5 | 120 | – | – | – | –
C[C@H]1C[C@@H]1C(=O)N1CC2CC(C1)N2 [drawing 157] | – | 100 | 7.6 | 2600 | – | – | – | –
O=C([C@H]1C[C@H]1F)N1CC2CC(C1)N2 [drawing 163] | – | 0.53 | – | 150 | 1.1 | – | – | –
O=C([C@H]1C[C@@H]1F)N1CC2CC(C1)N2 [drawing 165] | – | 1.6 | 4.6 | 780 | – | – | – | –
C[C@H]1C[C@@H]1C(=O)N1CC2CC(C1)N2 [drawing 170] | – | 4.8 | 13 | 1700 | – | – | – | –
